Source: patent US3984555A, “Therapeutic piperazinylalkyl-quinazolone-(4)-derivatives” (Byk Gulden Lomberg Chemische Fabrik Gesellschaft mit …, priority 1970, dated 1976)
Like-named read-outs stand apart in the source and are kept apart here.

Key:
[1] = test system: defence reaction after the thermal stimulation of the tail of the mouse; assay: Analgesic effect on the mouse: delay in defence reaction after thermal stimulation of the tail (Table IV); format: in vivo; conditions: po, read-out: Delay in the defence reaction after the thermal stimulation of the tail of the mouse by 25% by mg/kg per os
From the text: From Table IV below one can see the analgesic action, measured in terms of the delayed reaction during the thermal irritation of the mouse tail. The analgesically effective doses are also below those which reduce the motor behaviour, that is to say the normal movement processes (cf. Table III).
Analgesic effect on the mouse
Delay in the defence reaction after
the thermal stimulation of the tail

[2] = test system: mouse; assay: Mice falling from a rotating bar (Table III, a); format: in vivo; conditions: ip, read-out: a PD50 mg/kg i.p.
From the text: The central damping actions of the piperazinyl quinazolones on the mouse can be seen from Table III.
a = dose at which 50% of the mice fall from a rotating bar;

[3] = test system: mouse; assay: Inhibition of spontaneous motility, sedation, muscular relaxation, loss of grip on horizontal wire mesh in mice (Table III, b); format: in vivo; conditions: po, dose at which an average of 50% of the mice display symptoms, read-out: b SD50 mg/kg oral
[4] = test system: running activity of mice pre-treated with α-amphetamine sulphate; assay: Inhibition of running activity of mice pre-treated with α-amphetamine sulphate (Table III, c); format: in vivo; conditions: Mus musculus, ip, 3 h, 5 mg/kg α-amphetamine sulphate, 180 minutes; for inhibition in vivo at 12 mg/kg: 12mg/kg i/p, read-out: c % inhibition of motility in the treadwheel by 12mg/kg i/p; for inhibition in vivo at 25 mg/kg: 25mg/kg i/p, read-out: c % inhibition of motility in the treadwheel by 25mg/kg i/p
[5] = test system: duration of sleep of mice under hexobarbital; assay: Prolongation of hexobarbital sleep in mice (Table III, d); format: in vivo; conditions: Mus musculus, ip; 15 mg/kg i.p.; 75 mg/kg hexobarbital; read-out: d % prolongation of sleep under hexebarbital by 15 mg/kg i.p.
Method: d = percentage prolongation of the duration of sleep of mice which had received 75 mg/kg. of hexobarbital, reckoned on the duration of the sleep of control animals.

[6] = test system: blood pressure and cardiac frequency of the narcotised rat; assay: Influence on the blood pressure and the cardiac frequency of the narcotised rat (Table II); format: in vivo; conditions: iv, i/v, read-out: Blood pressure lowered by 30% by mg/kg i/v
From the text: Influence on the blood pressure and the cardiac frequency of the
blood pressure and the cardiac frequency of the narcosed rate and also on […]

[7] = test system: hypertensive effect of 1-adrenalin; assay: 50% inhibition of hypertensive effect of 0.001 mg/kg i/v 1-adrenalin on the despinalised rat (Table II); format: in vivo; conditions: iv, read-out: 50% inhibition of hypertensive effect after i/v dose of Adrenalin by mg/kg i/v
Method: (§1) also on the hypertensive effect of 0.001 mg/kg i/v 1-adrenalin and
(§2) blood pressure and the cardiac frequency of the narcosed rate and also on
(§3) the hypertensive effect of 0.001 mg/kg i.v. 1-adrenaline and noradrenaline
(§4) on the despinalised rat. The mean lethal doses for the mouse are also

[8] = test system: hypertensive effect of noradrenalin; assay: 50% inhibition of hypertensive effect of 0.001 mg/kg i/v noradrenalin on the despinalised rat (Table II); format: in vivo; conditions: iv, read-out: 50% inhibition of hypertensive effect after i/v dose of Noradrenalin by mg/kg i/v
Method: as §1, §2, §3, §4

[9] = LD50 (mean lethal dose) on the mouse (Table II); conditions: in vivo
From the text: as §4

[10] = test system: blood pressure and cardiac frequency of the narcotised cat; assay: Influence on the blood pressure and cardiac frequency of the narcotised cat (Table I); format: in vivo; set-up: unit not given here; conditions: for Blood pressure lowered by 30% by: dose lowering blood pressure by 30%; for Blood pressure lowered by 50% by: dose lowering blood pressure by 50%
From the text: (§5) Influence on the blood pressure and cardiac frequency and also
(§6) on the carotid sinus reflex of the narcotised cat
(§7) Table I provides a general summary of the influence of different piperazinylquinazolones on the blood pressure, the cardiac frequency and the carotid sinus reflex of the narcotised cat.

[11] = test system: carotid sinus reflex; assay: Inhibition of the carotid sinus reflex of the narcotised cat (Table I); format: in vivo; set-up: unit not given here; conditions: for Inhibition of the carotid sinus reflex by 30% by: dose for 30% inhibition; for Inhibition of the carotid sinus reflex by 50% by: dose for 50% inhibition
From the text: as §5, §6, §7
The inhibition of the carotid sinus reflex brought about by the piperazinyl quinazolones occurs at lower doses than the spontaneous lowering of the blood pressure in the cat.

[12] = dose at which 50% of the mice fall from a rotating bar

| Compound | ED25 ([1]; mouse, per os, 25% delay) [mg/kg] | ED50 [2] [mg/kg] | ED50 [3] [mg/kg] | inhibition in vivo at 12 mg/kg [4] [%] | inhibition in vivo at 25 mg/kg [4] [%] | change in vivo at 15 mg/kg [5] [%] | ED30 [6] [mg/kg] | ED50 [7] [mg/kg] | ED50 [8] [mg/kg] | LD50 [9] [mg/kg] | Blood pressure lowered by 30% by [10] | Blood pressure lowered by 50% by [10] | Inhibition of the carotid sinus reflex by 30% by [11] | Inhibition of the carotid sinus reflex by 50% by [11] | ED50 [2, 12] [mg/kg] | ED25 ([1]; Mus musculus) [mg/kg] |
| --- | --- | --- | --- | --- | --- | --- | --- | --- | --- | --- | --- | --- | --- | --- | --- | --- |
| Cc1c(N(C)C)c(=O)n(-c2ccccc2)n1C [Aminophenazone, 4-dimethylamino-1-phenyl-2,3-dimethylpyrazolone-5, reference compound] | 80 | – | – | – | – | – | – | – | – | – | – | – | – | – | – | – |
| CNC1=Nc2ccc(Cl)cc2C(c2ccccc2)=[N+]([O-])C1 [Chlordiazepoxide, chlorodiazepoxide, reference compound] | – | 38 | 8 | 15 | 19 | 324 | – | – | – | – | – | – | – | – | – | – |
| COc1cc2nc(CCN3CCN(c4ccccc4)CC3)[nH]c(=O)c2cc1OC [Example 1, 2-(2-(1-phenylpiperazinyl-4)ethyl)-6,7-dimethoxy-4(3H)-quinazolone] | 1.5 | 33 | 1000 | 15 | 55 | 64 | 0.3 | 0.23 | 5 | 70 | – | – | – | – | – | – |
| COc1cc2nc(CCN3CCN(c4ccccc4C)CC3)[nH]c(=O)c2cc1OC [Example 2, 2-(2-(1-(2-tolyl)-piperazinyl-4)ethyl)-6,7-dimethoxy-4(3H)-quinazolone] | 1 | 35 | 140 | 11 | 10 | 121 | 0.65 | 0.042 | 1.4 | 70 | 0.029 | > 1.6 | < 0.01 | 0.02 | – | – |
| COc1cc2nc(CCN3CCN(c4cccc(C)c4)CC3)[nH]c(=O)c2cc1OC [Example 3, 2-(2-(1-(3-tolyl)piperazinyl-4)ethyl)-6,7-dimethoxy-4(3H)-quinazolone] | 2 | 24 | 60 | 13 | 41 | 69 | 0.32 | 0.35 | 5 | 200 | – | – | – | – | – | – |
| COc1cc2nc(CCN3CCN(c4ccc(C)cc4)CC3)[nH]c(=O)c2cc1OC [Example 4] | 3 | 23 | 70 | 51 | 65 | 125 | 0.65 | – | – | 100 | – | – | – | – | – | – |
| COc1cc2nc(CCN3CCN(c4cccc(C(F)(F)F)c4)CC3)[nH]c(=O)c2cc1OC [Example 5, 2-(2-(1-(3-trifluoromethylphenyl)piperazinyl-4)ethyl)-6,7-dimethoxy-4(3H)-quinazolone] | < 1 | – | – | – | – | – | – | – | – | – | – | – | – | – | – | – |
| COc1cc2nc(CCN3CCN(c4ccccc4OC)CC3)n(C)c(=O)c2cc1OC [Example 8] | – | – | – | – | – | – | 0.12 | 0.035 | – | 350 | – | – | – | – | – | – |
| CCOc1ccccc1N1CCN(CCc2nc3cc(OC)c(OC)cc3c(=O)[nH]2)CC1 [Example 10, 2-(2-(1-(2-ethoxyphenyl)piperazinyl-4)ethyl)-6,7-dimethoxy-4(3H)-quinazolone] | 2 | – | – | – | – | – | 0.4 | 0.0085 | 1.8 | 300 | 0.03 | 1.4 | < 0.02 | 0.03 | – | – |
| COc1cc2nc(CCN3CCN(c4cccc(Cl)c4)CC3)[nH]c(=O)c2cc1OC [Example 12, 2-(2-(1-(3-chlorophenyl)piperazinyl-4)ethyl)-6,7-dimethoxy-4(3H)-quinazolone] | 1.5 | – | 500 | 0 | 19 | 78 | – | – | – | – | – | – | – | – | 34 | – |
| COc1cc2nc(CCN3CCN(c4ccc(Cl)cc4)CC3)[nH]c(=O)c2cc1OC [Example 13, 2-(2-(1-(4-chlorophenyl)piperazinyl-4)ethyl)-6,7-dimethoxy-4(3H)-quinazolone] | 2 | – | 200 | 15 | 15 | 44 | – | – | – | – | – | – | – | – | 46 | – |
| COc1cc2nc(CCN3CCN(c4cccc(F)c4)CC3)[nH]c(=O)c2cc1OC [Example 15, 2-(2-(1-(3-fluorophenyl)piperazinyl-4)ethyl)-6,7-dimethoxy-4(3H)-quinazolone] | 1 | – | – | – | – | – | 0.2 | 0.32 | 4.3 | 200 | – | – | – | – | – | – |
| COc1cc2nc(CCN3CCN(c4ccc(F)cc4)CC3)[nH]c(=O)c2cc1OC [Example 16, 2-(2-(1(4-fluorophenyl)piperazinyl-4)ethyl)-6,7-dimethoxy-4(3H)-quinazolone] | 2.5 | 14 | 65 | 10 | 49 | 103 | 0.6 | 0.57 | 4 | 300 | – | – | – | – | – | – |
| COc1ccc(N2CCN(CCc3nc4cc(OC)c(OC)cc4c(=O)[nH]3)CC2)cc1 [Example 17, 2-(2-(1-(4-methoxyphenyl)piperazinyl-4)ethyl)-6,7-dimethoxy-4(3H)-quinazolone] | 2 | – | – | – | – | – | – | – | – | – | 4.5 | > 1.5 | – | – | – | – |
| COc1cc2nc(CN3CCN(c4ccccc4OC)CC3)[nH]c(=O)c2cc1OC [Example 18, 2-(1-(2-methoxyphenyl)piperazinyl-4)methyl-6,7-dimethoxy-4(3H)-quinazolone] | 8 | – | 1000 | – | 12 | > 15 | – | – | – | – | – | – | – | – | – | – |
| COc1cc2nc(CCCN3CCN(c4ccccc4OC)CC3)[nH]c(=O)c2cc1OC [Example 20, 2-(3-(1-(2-methoxy-phenyl)-piperazinyl-4)-n-propyl)-6,7-dimethoxy-4(3H)-quinazolone] | 2 | – | – | – | – | – | 0.65 | 0.05 | 1.15 | 300 | – | – | – | – | – | – |
| CCCC(C)(COC(N)=O)COC(N)=O [Meprobamate, reference compound] | – | 95 | 300 | 11 | 28 | 18 | – | – | – | – | – | – | – | – | – | – |
| CN1CC[C@]23c4c5ccc(O)c4O[C@H]2[C@@H](O)C=C[C@H]3[C@H]1C5.Cl [Morphine hydrochloride, morphine hydrochloride, reference compound] | – | – | – | – | – | – | – | – | – | – | – | – | – | – | – | 2 |
| Cc1ccc(N(CC2=NCCN2)c2cccc(O)c2)cc1 [Phentolamine, phentolamine, reference compound] | – | – | – | – | – | – | 0.63 | 0.047 | 0.18 | 200 | 0.1 | 0.7 | 0.1 | 0.5 | – | – |
